Values of other authors in patent US20110014255A1, “PHYTOSANITARY FORMULATION GENERATING NANOPARTICLES, METHOD FOR PREPARING NANOPARTICLES AND USE THEREOF” (priority 2006, published 2011).
Values joined by “and” are separate entries in the source; they are usually repeats but may differ in a detail not shown here. Equal entries are not always repeated. Structures can show the parent of a compound that is named as a salt. Where two headings read alike, the source gives them in different places.

Details: % by weight

CCCCOCCOCCO [diethylene glycol n-butyl ether]
miscibility in water: 6.5%

COCOC [dimethoxymethane]
miscibility in water: 2.4%

CC(=O)OCc1ccccc1 [benzyl acetate]
miscibility in water: 0.001%

CCCC=O [butyraldehyde]
miscibility in water: 7.1%

O=C1CCCCC1 [cyclohexanone]
miscibility in water: 2.4% and 2.3%

CCCCCCCC(=O)N(C)C [N,N-dimethyloctanamide]
miscibility in water: 0.43%

c1ccc(Oc2ccccc2)cc1 [diphenyl ether]
miscibility in water: 0.002%

C=CC#N [acrylonitrile]
miscibility in water: 7.35%

CCC(CC)CO [2-ethylbutanol]
miscibility in water: 0.63%

CC(=O)OCC(C)C [isobutyl acetate]
miscibility in water: 0.67%

CC(C)COC(=O)C(C)C [isobutyl isobutyrate]
miscibility in water: 0.5%

CCCCCOC(C)=O [N-pentyl acetate]
miscibility in water: 1%

O=C(OCc1ccccc1)c1ccccc1O [benzyl salicylate]
miscibility in water: 0.005%

COc1ccccc1 [anisole]
miscibility in water: 1.04%

CC(=O)OC(C)C [isopropyl acetate]
miscibility in water: 2.9%

COC(=O)c1ccccc1O [methyl salicylate]
miscibility in water: 0.074% and 0.07%

CCCCOCCOP(=O)(OCCOCCCC)OCCOCCCC [tributoxyethyl phosphate]
miscibility in water: 0.11%

OCc1ccccc1 [benzyl alcohol]
miscibility in water: 0.08%

CCCOC(C)=O [propyl acetate]
miscibility in water: 2.3%

O=Cc1ccco1 [furfuraldehyde]
miscibility in water: 8.3%

CCCCOC(C)=O [butyl acetate]
miscibility in water: 2.9%

CC(=O)OCCC(C)C [isoamyl acetate]
miscibility in water: 2%

CCCCOC(=O)[C@H](C)O [(S)-n-butyl lactate]
miscibility in water: 4.5%

CC(=O)CC(C)C [methyl isobutyl ketone]
miscibility in water: 1.7%

CCCCC(CC)CO (centres unmarked) [2-ethylhexanol]
miscibility in water: 0.07%

CC1=CC(=O)CC(C)(C)C1 [isophorone]
miscibility in water: 1.2%

COC(=O)C(=O)OC [dimethyl oxalate]
miscibility in water: 5%

CCCC#N [butyronitrile]
miscibility in water: 3.3%

CCOC(C)=O [ethyl acetate]
miscibility in water: 8%

CCCCCCCCN1CCCC1=O [N-octylpyrrolidone]
miscibility in water: 0.1%
miscibility in water (listed as octyl pyrrolidone): not more than 0.1%

CCCCCCCCCCO [decanol]
miscibility in water: 0.02%

COC(=O)CCCCC(=O)OC [dimethyl adipate]
miscibility in water: 2.5%

CCOC(=O)c1ccccc1C(=O)OCC [diethyl phthalate]
miscibility in water: 0.1%

CCCCC(CC)COP(=O)(OCC(CC)CCCC)OCC(CC)CCCC (centres unmarked) [tris(2-ethylhexyl)phosphate]
miscibility in water: 0.1%

CC(Cl)Cl [1,1-dichloroethane]
miscibility in water: 5.03%

ClCCl [dichloro-methane]
miscibility in water: 1.3%

c1ccc2ncccc2c1 [quinoline]
miscibility in water: 0.61%

CC(=O)c1ccccc1 [acetophenone]
miscibility in water: 0.55%

ClCC1CO1 (centres unmarked) [epichlorohydrin]
miscibility in water: 6.58%

CCCCCC(C)O (centres unmarked) [Example 2-heptanol, 2-heptanol]
miscibility in water: 0.35%

CCCC(O)C(CC)CO (centres unmarked) [2-ethyl-1,3-hexanediol]
miscibility in water: 0.6%

N#Cc1ccccc1 [benzonitrile]
miscibility in water: 0.2%

COC(=O)c1ccccc1C(=O)OC [dimethyl phthalate]
miscibility in water: 1.84%
